The source of these data is patent US20180243286A1, “Antibacterial compositions of a beta-lactamase inhibitor with a cephalosporin” (WOCKHARDT LIMITED, priority 2015, published 2018).

Assay [1] relates to E. coli M50 producing CMY 6, DHA-1/2 beta-lactamase enzymes. Put plainly: Time kill study against clinical isolate of E. coli M50. The format is cell-based. The conditions noted are these: for Bacterial count (Log10 CFU/ml) 0 hour: 0 hour (starting inoculum); for Effect on bacterial counts when used alone: throughout the duration of the study. As to the method:
(§1) The killing effect of the combinations according to invention was studied by performing time kill studies. In a typical time kill study, the freshly grown cultures were diluted to the required cell density (initial starting inoculum) in Cation adjusted Muller Hinton broth medium (BD, USA). The antibacterial agents (either alone or in combination) at the required concentrations were added into the culture-containing medium. The samples were incubated under shaking condition (120 rpm) at 37° C. Enumeration of viable bacterial count was done every 2 hour by diluting in normal saline and plating on to the Tryptic Soya Agar plates (BD, USA). The plates were incubated for 24 hours to arrive at the viable bacterial count. The results are expressed in terms of log10 CFU per ml. In general, the decrease of 1 log10 CFU/ml corresponds to 90% killing of bacteria. Similarly, 2 log10 CFU/ml reductions indicates to 99% killing of bacteria and 3 log10 CFU/ml reductions is equal to 99.9% killing of bacteria.
E. coli M50 produces resistant CMY 6, DHA-1/2 beta-lactamase enzymes.

Assay [2] concerns K. pneumoniae H521 producing KPC, SHV and TEM beta-lactamase enzymes. Put plainly: Time kill study against clinical isolate of K. pneumoniae H521. The assay is classed as cell-based. As to conditions: for Bacterial count (Log10 CFU/ml) 0 hour: 0 hour (starting inoculum); for Change in Log10 CFU/ml over 0 hour count after 8 hours: positive = increase; for Effect on bacterial counts when used alone: throughout the duration of the study. The method, then:
as §1
K. pneumoniae H521 produces resistant KPC, SHV and TEM beta-lactamase enzymes.

Where [3] appears, read: agent alone 4 mcg/ml, negative = reduction.

As to `C=CC1=C(C(=O)O)N2C(=O)[C@@H](NC(=O)/C(=N\OCC(=O)O)c3csc(N)n3)[C@H]2SC1` [Cefixime], in assay [1] (agent alone 4 mcg/ml), the “Bacterial count (Log10 CFU/ml) 0 hour” value worked out at 7.14 Log10 CFU/ml, the “Bacterial count (Log10 CFU/ml) 2 hour” value turned out to be 8.95 Log10 CFU/ml, the “Bacterial count (Log10 CFU/ml) 4 hour” value came out at 8.40 Log10 CFU/ml and the “Bacterial count (Log10 CFU/ml) 6 hour” value was 8.90 Log10 CFU/ml. In addition, the “Bacterial count (Log10 CFU/ml) 8 hour” value in assay [1] (agent alone 4 mcg/ml) turned out to be 8.65 Log10 CFU/ml. Also, the “Change in Log10 CFU/ml over 0 hour count after 8 hours” value (“Change in Log10 CFU/ml” for short) in assay [1] (setting [3]) is on record as 1.51 Log10 CFU/ml. In addition, in assay [2] (agent alone 4 mcg/ml), the “Bacterial count (Log10 CFU/ml) 0 hour” value was determined as 7.18 Log10 CFU/ml, the “Bacterial count (Log10 CFU/ml) 2 hour” value stood at 8.26 Log10 CFU/ml, the “Bacterial count (Log10 CFU/ml) 4 hour” value was determined as 8.85 Log10 CFU/ml and the “Bacterial count (Log10 CFU/ml) 6 hour” value is 8.98 Log10 CFU/ml. In assay [2] (agent alone 4 mcg/ml), the “Bacterial count (Log10 CFU/ml) 8 hour” value amounted to 8.95 Log10 CFU/ml and the “Change in Log10 CFU/ml” value was found to be 1.77 Log10 CFU/ml.

Take `COCC1=C(C(=O)O)N2C(=O)[C@@H](NC(=O)/C(=N\OC)c3csc(N)n3)[C@H]2SC1` [Cefpodoxime]: in assay [1] (agent alone 4 mcg/ml), the “Bacterial count (Log10 CFU/ml) 0 hour” value turned out to be 7.14 Log10 CFU/ml, the “Bacterial count (Log10 CFU/ml) 2 hour” value was 8.18 Log10 CFU/ml, the “Bacterial count (Log10 CFU/ml) 4 hour” value came to 8.88 Log10 CFU/ml and the “Bacterial count (Log10 CFU/ml) 6 hour” value is 8.95 Log10 CFU/ml. For the same compound, in assay [1] (agent alone 4 mcg/ml), the “Bacterial count (Log10 CFU/ml) 8 hour” value turned out to be 8.40 Log10 CFU/ml. The “Change in Log10 CFU/ml” value in assay [1] (setting [3]) amounted to 1.26 Log10 CFU/ml. Besides, in assay [2] (agent alone 4 mcg/ml), the “Bacterial count (Log10 CFU/ml) 0 hour” value is given as 7.18 Log10 CFU/ml, the “Bacterial count (Log10 CFU/ml) 2 hour” value worked out at 8.60 Log10 CFU/ml, the “Bacterial count (Log10 CFU/ml) 4 hour” value is listed as 8.74 Log10 CFU/ml and the “Bacterial count (Log10 CFU/ml) 6 hour” value was 8.93 Log10 CFU/ml. Besides, in assay [2] (agent alone 4 mcg/ml), the “Bacterial count (Log10 CFU/ml) 8 hour” value was 8.81 Log10 CFU/ml and the “Change in Log10 CFU/ml” value was 1.63 Log10 CFU/ml.

With `Nc1nc(/C(=C/CC(=O)O)C(=O)N[C@@H]2C(=O)N3C(C(=O)O)=CCS[C@H]23)cs1` [Ceftibuten], in assay [1] (agent alone 4 mcg/ml), the “Bacterial count (Log10 CFU/ml) 0 hour” value came to 7.14 Log10 CFU/ml, the “Bacterial count (Log10 CFU/ml) 2 hour” value amounted to 7.90 Log10 CFU/ml, the “Bacterial count (Log10 CFU/ml) 4 hour” value was 8.40 Log10 CFU/ml and the “Bacterial count (Log10 CFU/ml) 6 hour” value stood at 8.98 Log10 CFU/ml. Moreover, the “Bacterial count (Log10 CFU/ml) 8 hour” value in assay [1] (agent alone 4 mcg/ml) came to 8.93 Log10 CFU/ml. Further, the “Change in Log10 CFU/ml” value in assay [1] (setting [3]) was determined as 1.79 Log10 CFU/ml. Besides, the “Effect on bacterial counts when used alone” value (from here on “Effect on bacterial counts”) in assay [1] is “did not reduce the bacterial counts”. Besides, in assay [2] (agent alone 4 mcg/ml), the “Bacterial count (Log10 CFU/ml) 0 hour” value came to 7.18 Log10 CFU/ml, the “Bacterial count (Log10 CFU/ml) 2 hour” value was 8.18 Log10 CFU/ml, the “Bacterial count (Log10 CFU/ml) 4 hour” value is on record as 8.88 Log10 CFU/ml and the “Bacterial count (Log10 CFU/ml) 6 hour” value is recorded as 8.40 Log10 CFU/ml. In assay [2] (agent alone 4 mcg/ml), the “Bacterial count (Log10 CFU/ml) 8 hour” value amounted to 8.60 Log10 CFU/ml and the “Change in Log10 CFU/ml” value worked out at 1.42 Log10 CFU/ml. In assay [2], the “Effect on bacterial counts” value was “did not reduce the bacterial counts”.

Take `C[C@@H](O)[C@H]1C(=O)N2C(C(=O)O)=C(SCCN=CN)C[C@H]12` [Imipenem]: in assay [1] (1 mcg/ml alone), the “Bacterial count (Log10 CFU/ml) 0 hour” value was 7.14 Log10 CFU/ml, the “Bacterial count (Log10 CFU/ml) 2 hour” value amounted to 4.25 Log10 CFU/ml, the “Bacterial count (Log10 CFU/ml) 4 hour” value stood at 4.60 Log10 CFU/ml and the “Bacterial count (Log10 CFU/ml) 6 hour” value is on record as 6.04 Log10 CFU/ml. Moreover, the “Bacterial count (Log10 CFU/ml) 8 hour” value in assay [1] (1 mcg/ml alone) is 7.34 Log10 CFU/ml. Moreover, in assay [1] (1 mcg/ml alone, positive = increase), the “Change in Log10 CFU/ml” value was found to be 0.2 Log10 CFU/ml. In assay [2] (8 mcg/ml alone), the “Bacterial count (Log10 CFU/ml) 0 hour” value turned out to be 7.18 Log10 CFU/ml, the “Bacterial count (Log10 CFU/ml) 2 hour” value is recorded as 8.10 Log10 CFU/ml, the “Bacterial count (Log10 CFU/ml) 4 hour” value stood at 8.81 Log10 CFU/ml and the “Bacterial count (Log10 CFU/ml) 6 hour” value was 8.70 Log10 CFU/ml. Moreover, in assay [2] (8 mcg/ml alone), the “Bacterial count (Log10 CFU/ml) 8 hour” value is reported as 9.11 Log10 CFU/ml and the “Change in Log10 CFU/ml” value amounted to 1.93 Log10 CFU/ml.

Take `NCCONC(=O)[C@@H]1CC[C@@H]2CN1C(=O)N2OS(=O)(=O)O` [Compound of Formula (I), (2S,5R)—N-(2-aminoethoxy)-7-oxo-6-(sulfoxy)-1,6-diazabicyclo[3.2.1]octane-2-carboxamide]: in assay [1] (agent alone 4 mcg/ml), the “Bacterial count (Log10 CFU/ml) 0 hour” value was found to be 7.14 Log10 CFU/ml, the “Bacterial count (Log10 CFU/ml) 2 hour” value turned out to be 6.40 Log10 CFU/ml, the “Bacterial count (Log10 CFU/ml) 4 hour” value worked out at 5.32 Log10 CFU/ml and the “Bacterial count (Log10 CFU/ml) 6 hour” value worked out at 5.32 Log10 CFU/ml. In addition, in assay [1] (agent alone 4 mcg/ml), the “Bacterial count (Log10 CFU/ml) 8 hour” value is 5.34 Log10 CFU/ml. The “Change in Log10 CFU/ml” value in assay [1] (setting [3]) is reported as −1.8 Log10 CFU/ml. Also, the “Effect on bacterial counts” value in assay [1] is listed as “did not reduce the bacterial counts”. In assay [2] (agent alone 4 mcg/ml), the “Bacterial count (Log10 CFU/ml) 0 hour” value stood at 7.18 Log10 CFU/ml, the “Bacterial count (Log10 CFU/ml) 2 hour” value stood at 7.98 Log10 CFU/ml, the “Bacterial count (Log10 CFU/ml) 4 hour” value was 8 Log10 CFU/ml and the “Bacterial count (Log10 CFU/ml) 6 hour” value is reported as 8.37 Log10 CFU/ml. In assay [2] (agent alone 4 mcg/ml), the “Bacterial count (Log10 CFU/ml) 8 hour” value is on record as 8.04 Log10 CFU/ml and the “Change in Log10 CFU/ml” value is 0.86 Log10 CFU/ml. Besides, in assay [2], the “Effect on bacterial counts” value is “did not reduce the bacterial counts”.

As to `CO/N=C(\C(=O)N[C@@H]1C(=O)N2C(C(=O)O)=C(COC(N)=O)CS[C@H]12)c1ccco1` [Cefuroxime], in assay [1] (agent alone 4 mcg/ml), the “Bacterial count (Log10 CFU/ml) 0 hour” value was 7.14 Log10 CFU/ml, the “Bacterial count (Log10 CFU/ml) 2 hour” value is listed as 8.33 Log10 CFU/ml, the “Bacterial count (Log10 CFU/ml) 4 hour” value was determined as 8.54 Log10 CFU/ml and the “Bacterial count (Log10 CFU/ml) 6 hour” value is recorded as 9.20 Log10 CFU/ml. Moreover, in assay [1] (agent alone 4 mcg/ml), the “Bacterial count (Log10 CFU/ml) 8 hour” value is given as 8.65 Log10 CFU/ml. The “Change in Log10 CFU/ml” value in assay [1] (setting [3]) is 1.51 Log10 CFU/ml. Further, the “Effect on bacterial counts” value in assay [1] is “did not reduce the bacterial counts”. Further, in assay [2] (agent alone 4 mcg/ml), the “Bacterial count (Log10 CFU/ml) 0 hour” value came out at 7.18 Log10 CFU/ml, the “Bacterial count (Log10 CFU/ml) 2 hour” value was 8.48 Log10 CFU/ml, the “Bacterial count (Log10 CFU/ml) 4 hour” value amounted to 8.70 Log10 CFU/ml and the “Bacterial count (Log10 CFU/ml) 6 hour” value is listed as 8.78 Log10 CFU/ml. Also, in assay [2] (agent alone 4 mcg/ml), the “Bacterial count (Log10 CFU/ml) 8 hour” value is reported as 8.60 Log10 CFU/ml and the “Change in Log10 CFU/ml” value amounted to 1.42 Log10 CFU/ml. Further, the “Effect on bacterial counts” value in assay [2] was “did not reduce the bacterial counts”.
